According to article PMC7277860, “Viridistratins A−C, Antimicrobial and Cytotoxic Benzo[j]fluoranthenes from Stromata of Annulohypoxylon viridistratum (Hypoxylaceae, Ascomycota)” (Biomolecules, 2020):
In brackets after ≈: the same amount, converted by molar mass.

Key:
Experiment in all cases: Cytotoxicity assay (MTT)
Assay type in all cases: cell-based
[1] = test system: A431 (human squamous carcinoma); details: Homo sapiens, A-431, 120 h, A431, 5 days, value in µg/mL, read-out: half-maximum inhibitory concentration (IC50)
Method: (§1) Compounds 1−5 were dissolved as described in the previous section. The cytotoxicity assay was initially performed against the cell lines L929 (mouse fibroblasts), as well as KB 3.1 (human papillomavirus-related endocervical adenocarcinoma), as described previously. A detailed protocol, as well as sources of the cell lines, is given in the Supporting Information.
(§2) After incubating the cell lines with a serial dilution of the test compounds (final range: 37 to 0.6 × 10^−3 µg/mL) for five days, the cells were dyed using 3-(4,5-dimethyl-2-thiazolyl)-2,5-diphenyl-2H-tetrazolium bromide (MTT), which is only converted to its purple formazan derivative by living cells. Then, the intensity of the purple derivative in relation to cells without additive (set to 100% viability) for each concentration of a test compound was quantified. For this, the absorption at 595 nm was measured using a microplate reader to calculate the percentage of cell viability. From this, the half-maximum inhibitory concentration (IC50, in µM) was calculated.
(§3) If an inhibition of cell viability with an IC50 < 50 µM was observed, further cell lines were subjected to the test compounds: PC-3 (human prostate adenocarcinoma), SK-OV-3 (human ovary adenocarcinoma), MCF-7 (human breast adenocarcinoma), A431 (human squamous carcinoma) and A549 (human lung carcinoma).
(§4) Protocol: Cytotoxicity Assay
(§5) The ass ay w as co nducted i n 9 6-well flat-bottom mi crotiter plates using the parameters summarised i n Tabl e S 2 and as described in [S2].
(§6) Cell lines L929 and KB 3.1 were incubated at 37 °C under 10 % CO2 in Gibco™ DMEM medium (Thermo Fisher Scientific, Waltham, MA, USA) supplemented with 10 % FBS. A microtiter plate was filled with 120 µL of this suspension (50,000/mL) in each well.
(§7) Seperately, another microtiter plate was filled with 100 µL of growth medium in each well. Then, 50 µL of the test compound sol utions (1 mg/mL) were given to wells of the first column in two replicates (one compound per row). C ell s wi thout addi ti ves, Me O H, and MeOH: DMSO 9+1 were used as negative controls. Starting from the first column, 50 µL of the solutions were gradually transferred to the ne xt col umn, the conte nts thoroughl y mi xed, and 50 µ L transferred to the following column. This created a serial dilution of the test compounds r anging from 333 µg/mL to 1.9 ×10−3 µg/mL. The remai ni ng 50 µL after column twelve were discarded. From this microtiter plate, 60 µL of the sol utions from 111 µg/ mL to 1.9×10−3 µg/mL were given to the first plate containing 120 µL of the cel l suspens i ons (i.e. the hi ghest concentrati on 333 µg/mL was not used). T his resulted i n fi nal compound concent rati ons rangi ng from […]
(§8) After 5 days of incubation under the aforeme ntioned i ncubati on condi ti ons, the half maximum inhibitory concentrati ons (IC 50) were determined using a colorimetric tetrazolium dye MTT assay [S3].
(§9) For this, 20 µL of a 5 mg/mL solution of 3-( 4 ,5 -dimethyl-2-thi azo l yl)-2 ,5 -di phenyl -2H-tetrazolium bromide (MTT) w ere added to each well and incubated for two hours at 37 °C. Then, the microtiter plate was centrifuged (3,000 r p m, 5 mi n) and the supernat ant remo ved by ho l di ng the pl ate upsi de-do wn and gentle shaking. Afterwards, the wells were washed using 100 µL of phosph ate buffered saline (PBS).
(§10) The plate was again centrifuged and the supernatant removed as described before. Then, 100 µL of an isopropanol:HCl solution (1L i sopropanol+4 mL HCl 37 % w/v) were added to the wells. After i ncubati ng fo r 10 mi n at ambi ent te mperature, the a bso r pti o n of the well s at 595 nm was measured wi th an I nfi ni te ® 200 Pro microplate reader (TECAN, Männedorf, Schweiz).
(§11) The absorption values of the cells without additives were averaged and set to 100 % cell viability.
(§12) Then, t he me ans of absorption of the two compound replicates were set in relation to the blank media.
(§13) These percentage values were plotted a gainst the concentration range (37 µg/mL to 0.6×10 −3 µg/mL). […]

[2] = test system: A549 (human lung carcinoma); details: Homo sapiens, 120 h, A549, 5 days, value in µg/mL, read-out: half-maximum inhibitory concentration (IC50)
Method: as §1, §2, §3, §4, §5, §6, §7, §8, §9, §10, §11, §12, §13

[3] = test system: KB 3.1 (human endocervical adenocarcinoma); details: 5 days
Method: as §1, §2, §4, §5, §6, §7, §8, §9, §10, §11, §12
These percentage values were plotted a gainst the concentration range (37 µg/mL to 0.6×10 −3 µg/mL).
The IC50 val ue w as read from the plot ( i n µg/mL) and the uni ts conversed to µM.
If effects were observed wi th cell lines L929 and KB 3.1 (IC50 < 50 µM), the other cell lines were tested using the same protocol.
Table S2: Cytotoxicity assay experiment parameters cell line type No. growth medium […]

| SMILES | IC50 [1] [µg/mL] | IC50 [2] [µg/mL] | IC50 [3] [µM] |
| --- | --- | --- | --- |
| COc1cccc2c3c(ccc12)-c1ccc(O)c2c(O)ccc-3c12 [Compound 2, viridistratin B] | 0.34 (≈ 1.08 µM) | 0.45 (≈ 1.43 µM) |  |
| COc1cccc2c3c(ccc12)-c1ccc(O)c2c(OC)ccc-3c12 [Compound 3, viridistratin C] |  |  | 85.4 |
